{
  "source": "patent US7741287B2",
  "about": "“Peptides for the treatment of herpes virus infections” (IPF PharmaCeuticals GmbH, priority 2004, dated 2010)",
  "tested_on": "HSV-2",
  "type": "cell-based, herpes simplex virus type 2 (HSV-2)",
  "settings": "ELVIS cell infection assay; virus not given",
  "note": "Where no end group is shown, it is not given here.",
  "data": [
    {"sequence": "VCVLAHHFGKEF [VCVLAHHFGKEF (SEQ ID NO:2)]", "values": [
      {"measurement": "antiviral activity in cellular infection assay", "value": "high activity"}
    ]}
  ]
}
